Patent publication US6838445B1, “Tumor antigen peptide originating in SART-1” (Kyogo Itoh, priority 1998, dated 2005)
Where no end group is shown, it is not given here.

Tests used:
[1] = test system: KE-4CTL reacting with HLA-A2402-expressing VA-13 cells; assay: IFN-γ production by KE-4CTL against peptide-pulsed HLA-A2402-expressing VA-13 cells (ELISA); assay type: cell-based, human; details: peptide 10 μM for 2 hours on HLA-A2402-expressing VA-13 cells, 18 hours culture with 2×10^4 KE-4CTLs
Procedure: Concretely, when peripheral blood lymphocytes are isolated from HLA-A24 antigen-positive human and candidate peptides are added thereto to stimulate in vitro, it can be evaluated by determining whether or not CTLs that specifically recognize the candidate peptide-pulsed HLA-A24-positive cells are induced. Here, the presence or absence of the induction of the CTLs can be examined, for instance, by assaying an amount of various cytokines (for instance, IFN-γ) produced by CTLs in reaction with the antigen peptide presenting cells by means of enzyme-linked immunosorbent assay (ELISA) or the like. As the antigen peptide presenting cells (target cells) during the assay, there are included, for instance, esophageal cancer cell line KE-4 (FERM BP-5955). In addition, the induction can be examined by the method for assaying CTL toxicity on ^51Cr-labeled antigen peptide presenting cells (^51Cr-release assay, Int. J. Cancer, 58:317, 1994). Further, the induction can be examined by pulsing with candidate peptides to cells resulting from introduction of an expression plasmid into, for instance, COS-7 cells (ATCC No. CRL1651) and VA-13 cells (RIKEN CELL BANK), the expression plasmid for expressing HLA-A24 cDNA [Cancer Res., 55:4248-4252 (1995); Genbank Accession No. M64740]; reacting KE-4CTL (FERM BP-5954), or CTLs prepared in the manner described above, or the like with the resulting cells; and assaying an amount of various cytokines (for instance, IFN-γ) that are produced by CTLs.
HLA-A2402 cDNA (listed in Genbank Accession No. M64740) was obtained from KE-4 in accordance with the description in the publication (Cancer Res., 55:4248, 1995), and a recombinant plasmid was prepared by incorporating the resulting product into an expression vector pCR3 (manufactured by INVITROGEN). This plasmid was transfected to 10^4 cells of VA-13 cells (available from RIKEN CELL BANK; Ann. Med Exp. Biol. Fenn., 44:242, 1966) by lipofectin method in accordance with the publication (J. Exp. Med., 187:277, 1998), to thereby express HLA-A2402. Each of the peptides “725-733,” “740-750,” “746-755,” “746-756” and “758-766*” among those listed in Example 1 was added at 10 μM in 2 hours, and thereafter the mixture was cultured for 18 hours together with 2×10^4 of KE-4CTLs. An amount of IFN-γ produced by KE-4CTLs in the culture supernatant was assayed by ELISA method. […] Thereafter, the resulting product was developed by using Peroxidase Developing Kit T (manufactured by Sumitomo Bakelite Company, Limited), and thereafter its absorbance (405 nm) was determined. The resulting value was quantified by comparing it with the value obtained from standard IFN-γ. […]

[2] = test system: HLA-A2402-negative QG56 cells; assay: Induction of CTLs from peripheral blood lymphocytes by peptide; IFN-γ release against QG56 target cells (ELISA); assay type: cell-based; details: peripheral blood lymphocytes (HLA-A24 homo healthy donors) stimulated three times with 10 μM peptide, 8×10^4 effectors; target cells QG56 (1×10^4), negative control
Procedure: (§1) First, lymphocytes were isolated by Ficol method from peripheral blood of healthy donors whose HLA-A locus is A24 homo. The lymphocytes were aliquoted to a 24-well plate so as to be 2×10^6 cells/well, and cultured in a culture medium containing 45% RPMI 1640 medium, 45% AIM-V medium, 10% FCS and 100 U/ml IL-2. Each of the above-mentioned tumor antigen peptides was added to the culture medium so as to have a concentration of 10 μM, to stimulate the peripheral blood lymphocytes. One week later, the above-mentioned tumor antigen peptide was added thereto so as to have a concentration of 10 μM, together with about 2×10^5 of X-ray irradiated (50 Gy) peripheral blood lymphocytes, to carry out a second stimulation of the lymphocytes. After another week, a third stimulation was carried out by repeating the procedures in the same manner as above. After one week from the third stimulation, the cultured lymphocytes were collected. The amount of IFN-γ of the supernatant was assayed by ELISA, the supernatant being produced by reacting the above-mentioned lymphocytes (8×10^4) with HLA-A2402-positive KE-4 cells in which the tumor antigen protein was expressed and with HLA-A2402-negative QG56 cells in which the tumor antigen protein was expressed, respectively, as targeted cells (1×10^4).

[3] = test system: HLA-A2402-positive KE-4 cells; assay: Induction of CTLs from peripheral blood lymphocytes by peptide; IFN-γ release against KE-4 target cells (ELISA); assay type: cell-based, human; details: for induction of antigen peptide-specific CTLs from peripheral blood lymphocytes: conclusion from Table 1; for reactivity of peptide-stimulated peripheral blood lymphocytes against KE-4 compared with negative control QG56: from Table 1; for IFN-γ (pg/ml) in Supernatant: peripheral blood lymphocytes (HLA-A24 homo healthy donors) stimulated three times with 10 μM peptide, 8×10^4 effectors, target cells KE-4 (1×10^4)
Procedure: as §1

AFRQLSHRF [725-733]
activity as HLA-A24-restricted tumor antigen peptide (amount of IFN-γ produced by KE-4CTLs, FIG. 1) [1]: function as HLA-A24-restricted tumor antigen peptides

KMKTERRMKKL [740-750]
activity as HLA-A24-restricted tumor antigen peptide (amount of IFN-γ produced by KE-4CTLs, FIG. 1) [1]: function as HLA-A24-restricted tumor antigen peptides

RMKKLDEEAL [746-755]
activity as HLA-A24-restricted tumor antigen peptide (amount of IFN-γ produced by KE-4CTLs, FIG. 1) [1]: function as HLA-A24-restricted tumor antigen peptides | IFN-γ (pg/ml) in Supernatant [2]: 281.4 pg/mL | induction of antigen peptide-specific CTLs from peripheral blood lymphocytes [3]: antigen peptide-specific CTLs were induced | reactivity of peptide-stimulated peripheral blood lymphocytes against KE-4 compared with negative control QG56 [3]: stronger reactivities against KE-4 | IFN-γ (pg/ml) in Supernatant [3]: 595.5 pg/mL

RMKKLDEEALL [746-756]
activity as HLA-A24-restricted tumor antigen peptide (amount of IFN-γ produced by KE-4CTLs, FIG. 1) [1]: function as HLA-A24-restricted tumor antigen peptides | IFN-γ (pg/ml) in Supernatant [2]: 392.0 pg/mL | induction of antigen peptide-specific CTLs from peripheral blood lymphocytes [3]: antigen peptide-specific CTLs were induced | reactivity of peptide-stimulated peripheral blood lymphocytes against KE-4 compared with negative control QG56 [3]: stronger reactivities against KE-4 | IFN-γ (pg/ml) in Supernatant [3]: 701.5 pg/mL
